Tests used:
Type in all cases: in vivo, mouse
DIO mice [1] = test: Cardiac function and histology in DIO mice (echocardiography)
Description: After chronic treatment, HFHCD-fed or HFHSD-fed C57B16/j male mice (age) were sacrificed with CO2, body weight as well as heart weights and tibia length was taken during necropsy. Livers and whole hearts were embedded in paraffin using a vacuum infiltration processor TissueTEK VIP (Sakura). 3 μm thick slides were cut using a HMS35 rotatory microtome (Zeiss) and H & E staining was performed. For H & E staining, rehydration was done in a decreasing ethanol series, rinsing with tapwater, 2 min Mayers acid Hemalum, bluing in tapwater followed by lmin EosinY (both BioOptica). Dehydration was performed in increasing ethanol series, mounting with Pertex® (Medite GmbH) and coverslips (CarlRoth Chemicals). The slides were evaluated independently using a brightfield microscope (Axioplan, Zeiss). Photos were taken using the Hamamatsu-Nanozoomer HT2.0 in 1.25×, 5×. 20× and 40× magnification. The hepatic steatosis score is defined as the unweighted sum of the three individual scores for steatosis, lobular inflammation and ballooning degeneration. Steatosis is graded by the presence of fat vacuoles in liver cells according to the percentage of affected tissue (0: <5%; 1: 5-33%; 2: 33-66%; 3: >66%). Lobular inflammation is scored by overall assessment of inflammatory foci per 200× field (0: no foci; 1: <2 foci; 2: 2-4 foci; 3: >4 foci). The individual score for ballooning degeneration ranges from 0 (none), 1 (few cells) to 2 (many cells). Total scores range from 0 to 8 with scores <2 considered non-steatosis, 3 considered as borderline steatosis, 4-5 considered onset of steatosis, and >6 considered steatosis. Different to liver and heart, inguinal fat pad samples were embedded in paraffin using Leica embedding machine (EG1150 H) and cut in 5 μm sections using Leica Microtome (RM2255) to perform H&E staining. Samples were stained with hematoxyline for 4 minutes and eosinY for 2 minutes and fixed with Roti®-Histokitt (Carl Roth) before analysing them independently using Microscope Scope A.1 (Zeiss).
For transthoracic echocardiography, a Vevo2100 Imaging System (VisualSonics Inc., Toronto Canada) with a 30 MHz probe was used. All echocardiograms were performed on conscious animals to prevent anesthesia-related impairment of cardiac function as reported previously. Briefly, echocardiograms were obtained in parasternal long and short axis views. For accurate linear measurements of LV internal dimensions (LVID) and […] (LVPW) or septal (IVS) wall thicknesses, M-mode images of the heart in parasternal short-axis view at the level of the papillary muscle were acquired. Qualitative and quantitative measurements were made offline using analytical software (VisualSonics Inc.). Fractional shortening (FS) was calculated as FS %=[(LVIDd−LVIDs)/LVIDd]×100. Ejection fraction (EF) was calculated as EF %=100*((LVvolD−LVvolS)/LVvolD) with LVvol=((7.0/(2.4+LVID)*LVID^3). The corrected LV mass (LV MassCor) was calculated as LV MassCor=0.8(1.053*((LVIDd+LVPWd+IVSd)^3−LVIDd^3)). Heart rate and respiration rate were determined from M-mode tracings, using 3 consecutive intervals.
Gene expression profiling in the liver, iWAT, eWAT, BAT, and heart were performed following treatment of mice according to the treatment paradigms explained in the figure legends for each specific analsysis. For tissue collection, mice were fasted for 4 h and treated with compounds 2 h prior to tissue collection. Gene expression was profiled with quantitative real-time RT-PCR using either TaqMan single probes or with specifically-designed TaqMan low-density array cards. The relative expression of the selected genes was normalized to the reference gene hypoxanthine-guanine phosphoribosyltransferase (Hprt).

[2] = system: diet-induced obese (DIO) mice
Excerpt: For studies on lipid handling in wildtype mice (Western mice), male C57Bl/6j mice (Jackson Laboratories) were fed a atherogenic Western diet (Research Diets D12079B), which is a high-cholesterol diet (0.21% gm %) with 41% kcal from fat, 43% kcal from carbohydrates, and 17% kcal from protein. For studies on energy metabolism in obese mice (DIO mice), male C57Bl/6j mice (Jackson Laboratories) were fed a diabetogenic diet (Research Diets D12331), which is a high-sucrose diet with 58% kcal from fat 25.5% kcal from carbohydrates, and 16.4% kcal from protein. Both dietary challenges began at 8 weeks of age. HFHSD and HFHCD mice were single- or group-housed on a 12:12-h light-dark cycle at 22° C. with free access to food and water. Mice were maintained under these conditions for a minimum of 16 weeks before initiation of pharmacological studies and were between the ages of 6 months to 12 months old. All injections and tests were performed during the light cycle. Compounds were administered in a vehicle of 1% Tween-80 and 1% DMSO and were given by daily subcutaneous injections at the indicated doses at a volume of 5 μl per g body weight. Mice were randomized and evenly distributed to test groups according to body weight and body composition. If ex vivo molecular biology/histology/biochemistry analyses were performed, the entire group of mice for each treatment was analyzed and scored in a blinded fashion.
(§1) Compounds were administered by repeated subcutaneous injections in the middle of the light phase at the indicated doses with the indicated durations. Co-administration of compounds was administered by single formulated injections. Body weights and food intake were measured every day or every other day after the first injection. All studies with wild-type mice were performed with a group size of n=8 or greater using mice on a C57B16j background.
Whole-body composition (fat and lean mass) was measured using nuclear magnetic resonance technology (EchoMRI).
(§2) Energy intake, energy expenditure, respiratory exchange ratio, and home-cage activity were assessed using a combined indirect calorimetry system (TSE Systems). O2 consumption and CO2 production were measured every 10 min for a total of up to 120 h (after 24 h of adaptation) to determine the respiratory quotient and energy expenditure after an initial treatment regimen. Food intake was determined continuously for the same time as the indirect calorimetry assessments by integration of scales into the sealed cage environment. Home-cage locomotor activity was determined using a multidimensional infrared light beam system with beams scanning the bottom and top levels of the cage, and activity being expressed as beam breaks.
Blood was collected at the indicated times from tail veins or after euthanasia using EDTA-coated microvette tubes (Sarstedt), immediately chilled on ice, centrifuged at 5,000 g and 4° C., and plasma was stored at −80° C. For […] (FPLC) of cholesterol distribution in different lipoprotein fractions, fresh plasma from each treatment group was pooled (n=6-8) and ran over two Superose 6 HR columns in tandem. Cholesterol levels in the collected fractions were determined by colorimetric assay. Plasma insulin and T3 were quantified by an ELISA assay (Ultrasenstive Mouse Insulin ELISA and Rodent T3 ELISA; Alpco). Plasma FGF21 was quantified by an ELISA assay (Mouse FGF21 ELISA; Millipore). Plasma cholesterol, extracted hepatic cholesterol, triglycerides, ALT, and AST were measured using enzymatic assay kits (Thermo Fisher). Plasma creatinine and blood urea nitrogen were measured using enzymatic assay kits (Abcam). Plasma free fatty acids were measured using enzymatic assay kits (Wako). All assays were performed according to the manufacturers' instructions. […]

DIO mice [3] = test: Glycemic control in DIO mice; settings: i.p. pyruvate 1.5 g kg-1
Description: as §1
For assessment of glucose, pyruvate, and insulin tolerance during chronic treatment, the challenge tests were performed at least 24 hours after the last administration of compounds. […]
as §2, with “breaks. […]” for “breaks.”

## N[C@@H](Cc1cc(I)c(Oc2ccc(O)c(I)c2)c(I)c1)C(=O)O [T3, 3,5,3′-triiodothryonine]
DIO mice [1]; histological profiling of the hearts
  heart histology: cell death: marked cell death was detectable
DIO mice [1]; mouse, in vivo
  heart histology: thyrotoxic cardiomyopathy: marked features of thyrotoxic cardiomyopathy
  whole heart expression of T3-sensitive genes (Dio2, Ucp2): directly increased
  whole heart expression of hypertrophic gene markers (Nppa, Nppb): directly increased
[2]; DIO mice on HFHSD
  home cage (ambulatory) activity: significantly increased
[2]; DIO mice on HFHSD, 7 days
  food intake: increased
[2]; DIO mice on HFHSD, equimolar doses, 100 nmol kg-1 daily, 7 days
  body weight lowering: Neither glucagon nor T3 appreciably lowered body weight
[2]; DIO mice on HFHSD, indirect calorimetry
  whole-body energy expenditure: substantially increased
[2]; mouse, in vivo
  circulating levels of T3: resulted in an increase
  rectal temperature: increased rectal temperature
DIO mice [3]
  pyruvate tolerance (hepatic glucose output): substantially improved

From patent US20190388510A1, “GLUCAGON-T3 CONJUGATES” (priority 2016, published 2019)
